Where two headings read alike, the source gives them in different places.
Tests used:
Assay type in all cases: biochemical
human MAGL [1] = target: T1, human MAGL (Homo sapiens (Human), UniProt Q99685); assay: MAGL inhibition potency assay with 4NPA substrate (methods of Table C); conditions: Method 2: Cayman Chemical MAGL enzyme, 10 nM
Target sequence in this assay (Q99685 2-303): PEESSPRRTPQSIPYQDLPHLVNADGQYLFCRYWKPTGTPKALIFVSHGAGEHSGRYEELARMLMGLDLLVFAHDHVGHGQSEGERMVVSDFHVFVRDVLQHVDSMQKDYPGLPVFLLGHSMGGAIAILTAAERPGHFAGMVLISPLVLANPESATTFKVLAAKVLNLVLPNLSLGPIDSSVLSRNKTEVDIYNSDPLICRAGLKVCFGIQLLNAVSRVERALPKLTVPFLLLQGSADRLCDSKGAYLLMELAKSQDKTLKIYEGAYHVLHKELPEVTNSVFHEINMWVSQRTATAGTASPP

human recombinant FAAH = human recombinant FAAH (Homo sapiens (Human), UniProt O00519); assay: FAAH counter screen (Fatty Acid Amide Hydrolase Inhibitor Screening Assay Kit)
Description: MAGL inhibitor compounds were also counter-screened for FAAH inhibition potency using the following assay. Assessment of FAAH inhibition was performed using Fatty Acid Amide Hydrolase Inhibitor Screening Assay Kit (Cayman Item No. 10005196) following manufacture's instruction with some modifications. The kit utilizes human recombinant FAAH and the fluorescent substrate, AMC Arachidonoyl amide (AAMCA). 5 μL of assay buffer (125 mM Tris, pH 9.0, 1 mM EDTA, i.e. ethylenediaminetetraacetic acid) was added to a 384-well black plate (Corning, 3573). Test compounds and control inhibitor JZL-195 (Cayman Chemical, 13668) were tested in 10-concentration IC50 mode with 3-fold serial dilution at a starting concentration of 100 μM and 10 μM, respectively. 300 nL or 30 nL of test compounds were delivered into a 384-well black plate (Corning, 3573) using a Labcyte Echo, followed by addition of 15 μL of FAAH enzyme (Cayman, 700302) in assay buffer. After a 5-minute pre-incubation at room temperature, 10 μL of AAMCA was added in assay buffer to start the reaction. Final concentration of FAAH enzyme is not specified and AAMCA substrate was used at the 20 μM. After these dilutions, the final concentration of the test compounds ranged from 100 μM to 5.08 nM or 10 μM down to 0.508 nM. The reaction was allowed to progress for 60 minutes, while the plate was read on an Envision plate reader at an Ex/Em of 350/460 nm with readings every minute. The data was analyzed in Microsoft Excel, using the slope between 30 and 59 minutes. The average of the no-enzyme wells (background) was subtracted from the data. The background-subtracted slope data was converted to % activity using the average of wells with enzyme and DMSO vehicle. IC50 values were calculated using GraphPad software (Sigmoidal dose response, variable slope equation).
Compounds listed in Table D2 were tested in the FAAH Counterscreen of Example 19

human MAGL [2] = target: T1, human MAGL; assay: MAGL reversible inhibition assay (washout); conditions: for A: degree to which MAGL enzymatic activity returned following washout: pre-washout compound concentration: 1 μM
Description: The reversible mechanism of MAGL inhibition of a test compound of Formula (I) can be determined. Flag-tagged MAGL enzyme will be immobilized on anti-Flag beads. Immobilized enzyme will be incubated+/−inhibitor at a dose that produces complete inhibition. Colorimetric substrate (4-NPA) will be added and the reaction monitored on a plate reader for 30 minutes to verify complete inhibition. Immobilized enzyme will then be washed thoroughly to remove the inhibitor, and fresh substrate will be added. The reaction will be monitored for an additional 30 minutes; returning enzymatic activity will indicate reversibility of inhibition.
MAGL enzyme was incubated for 30 minutes in the presence of 40× the IC50 concentration of inhibitor. Enzyme+inhibitor mix was then diluted 40-fold so that the final concentration of the inhibitor equaled the IC50 concentration. Substrate was added and the reaction was monitored for 30 minutes.
Target sequence in this assay (Q99685 whole entry): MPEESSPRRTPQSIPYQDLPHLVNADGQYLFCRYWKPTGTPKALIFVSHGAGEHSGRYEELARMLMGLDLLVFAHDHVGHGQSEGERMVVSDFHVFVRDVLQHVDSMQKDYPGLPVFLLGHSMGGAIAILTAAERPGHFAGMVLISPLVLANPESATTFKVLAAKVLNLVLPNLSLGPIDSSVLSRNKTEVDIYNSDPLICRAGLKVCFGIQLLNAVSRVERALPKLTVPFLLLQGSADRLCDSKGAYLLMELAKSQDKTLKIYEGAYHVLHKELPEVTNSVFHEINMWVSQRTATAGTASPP

[3] = Method A: starting concentration of 100 μM

Sequence of human recombinant FAAH (O00519 whole entry): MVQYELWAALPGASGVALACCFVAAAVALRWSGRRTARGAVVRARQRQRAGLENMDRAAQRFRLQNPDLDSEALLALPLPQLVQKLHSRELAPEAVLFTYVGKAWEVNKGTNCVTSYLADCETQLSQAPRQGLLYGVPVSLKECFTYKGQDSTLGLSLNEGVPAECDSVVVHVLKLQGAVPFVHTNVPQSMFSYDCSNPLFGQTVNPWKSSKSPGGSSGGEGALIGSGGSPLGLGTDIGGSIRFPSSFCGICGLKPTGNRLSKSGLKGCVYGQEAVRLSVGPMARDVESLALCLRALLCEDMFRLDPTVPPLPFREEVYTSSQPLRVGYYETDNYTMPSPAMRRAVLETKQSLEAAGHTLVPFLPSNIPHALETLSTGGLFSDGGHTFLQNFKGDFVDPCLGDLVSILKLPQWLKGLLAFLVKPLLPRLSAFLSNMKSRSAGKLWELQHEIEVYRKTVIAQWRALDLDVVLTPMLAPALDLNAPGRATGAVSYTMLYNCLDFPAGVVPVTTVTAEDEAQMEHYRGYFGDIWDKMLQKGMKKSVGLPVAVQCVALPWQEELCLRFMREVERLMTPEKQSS

(2-fluoro-5-hydroxyphenyl) (6-(3-methyl-1-(o-tolyl)-1H-pyrazol-5-yl)-2-azaspiro[3.3]hept-5-en-2-yl) methanone [Compound 120]
IC50 (human MAGL [1]; read-out: MAGL Potency (Detection Method)): 0.15 to 0.5 µM | IC50 (human recombinant FAAH; [3]): > 10 µM

Cc1cn(C2CC3(C2)CN(C(=O)c2cc(O)ccc2F)C3)nc1-c1cc(F)ccc1Cl [Compound 520, {6-[3-(2-chloro-5-fluorophenyl)-4-methyl-1-pyrazolyl]-2-aza-2-spiro[3.3]heptyl}(2-fluoro-5-hydroxyphenyl) methanone]
A: degree to which MAGL enzymatic activity returned following washout (human MAGL [2]): 100

Cc1cc(C2CC3(C2)CN(C(=O)c2c(F)ccc(O)c2F)C3)n(-c2ccccc2C)n1 [Compound 127, (2,6-difluoro-3-hydroxyphenyl)(6-(3-methyl-1-(o-tolyl)-1H-pyrazol-5-yl)-2-azaspiro[3.3]heptan-2-yl)methanone]
IC50 (human recombinant FAAH; [3]): > 10 µM

Cc1cnn(C2CC3(C2)CN(C(=O)c2cc(O)ccc2F)C3)c1-c1cc(F)ccc1Cl [Compound 519, {6-[5-(2-chloro-5-fluorophenyl)-4-methyl-1-pyrazolyl]-2-aza-2-spiro[3.3]heptyl}(2-fluoro-5-hydroxyphenyl) methanone]
A: degree to which MAGL enzymatic activity returned following washout (human MAGL [2]): 155

Cc1cc(C2CC3(C2)CN(C(=O)c2ccccc2F)C3)n(-c2ccccc2C)n1 [Compound 122, (2-fluorophenyl)(6-(3-methyl-1-(o-tolyl)-1H-pyrazol-5-yl)-2-azaspiro[3.3]heptan-2-yl)methanone]
IC50 (human recombinant FAAH; [3]): > 10 µM

O=C(Oc1ccc([N+](=O)[O-])cc1)N1CCC(C(O)(c2ccc3c(c2)OCO3)c2ccc3c(c2)OCO3)CC1 [JZL-184, reference compound]
A: degree to which MAGL enzymatic activity returned following washout (human MAGL [2]): complete lack of return of MAGL enzymatic activity | B: % MAGL activity returning after washout (human MAGL [2]; relative to control, immediately following a 30 minute washout): <1%

COc1ccc(F)c(C(=O)N2CC3(CC(c4cc(C)nn4-c4ccccc4C)C3)C2)c1 [Compound 123, (2-fluoro-5-methoxyphenyl)(6-(3-methyl-1-(o-tolyl)-1H-pyrazol-5-yl)-2-azaspiro[3.3]heptan-2-yl)methanone]
IC50 (human MAGL [1]; read-out: Potency (MAGL inhibition)): > 10 µM | IC50 (human recombinant FAAH; [3]): > 10 µM

O=C(c1cc(O)ccc1F)N1CC2(CC(n3cc(C4CC4)c(-c4ccccc4F)n3)C2)C1 [Compound 493]
A: degree to which MAGL enzymatic activity returned following washout (human MAGL [2]): 47 | IC50 (human recombinant FAAH; Method B: starting concentration of 10 μM): > 10 µM

Cc1cc(C2CC3(C2)CN(C(=O)c2cccc(O)c2)C3)n(-c2ccccc2C)n1 [Compound 125, (3-hydroxyphenyl)(6-(3-methyl-1-(o-tolyl)-1H-pyrazol-5-yl)-2-azaspiro[3.3]heptan-2-yl)methanone]
IC50 (human recombinant FAAH; [3]): > 10 µM

Cc1ccccc1-n1nc(C2CC3(C2)CN(C(=O)c2cc(O)ccc2F)C3)cc1C [Compound 117]
IC50 (human recombinant FAAH; [3]): > 10 µM
